Test [1] deals with T1, human UT-B (Homo sapiens, UniProt Q13336).
T1 sequence (Q13336 1-389): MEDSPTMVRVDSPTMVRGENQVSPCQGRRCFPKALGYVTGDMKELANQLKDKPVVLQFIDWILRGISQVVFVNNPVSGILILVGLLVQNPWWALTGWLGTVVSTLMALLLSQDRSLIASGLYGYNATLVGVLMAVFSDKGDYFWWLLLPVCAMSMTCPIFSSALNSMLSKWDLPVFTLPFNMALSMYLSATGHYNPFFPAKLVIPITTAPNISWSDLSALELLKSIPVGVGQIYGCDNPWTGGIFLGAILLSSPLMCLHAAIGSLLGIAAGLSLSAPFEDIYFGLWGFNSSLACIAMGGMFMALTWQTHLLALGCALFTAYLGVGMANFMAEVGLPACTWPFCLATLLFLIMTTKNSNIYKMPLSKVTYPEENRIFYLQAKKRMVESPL
Briefly: […]-urea uptake in Xenopus oocytes. The test is classed as cell-based. To be noted: read-out: % inhibition at 1 mM.

Test [2] addresses T2, dvUT (Nitratidesulfovibrio vulgaris, UniProt Q72CX3).
T2 sequence (Q72CX3 1-337): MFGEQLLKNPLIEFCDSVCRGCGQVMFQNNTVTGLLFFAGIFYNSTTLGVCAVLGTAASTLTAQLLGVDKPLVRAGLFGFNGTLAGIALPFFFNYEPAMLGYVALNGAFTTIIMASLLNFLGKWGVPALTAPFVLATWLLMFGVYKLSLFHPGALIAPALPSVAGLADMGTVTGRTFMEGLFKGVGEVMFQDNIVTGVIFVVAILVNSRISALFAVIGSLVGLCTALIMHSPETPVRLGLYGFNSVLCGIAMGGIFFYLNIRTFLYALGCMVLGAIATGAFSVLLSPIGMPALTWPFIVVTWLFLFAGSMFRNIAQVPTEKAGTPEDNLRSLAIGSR
Briefly: […]-urea uptake in Xenopus oocytes. To be noted: read-out: % inhibition at 1 mM. The test is classed as cell-based.

In test [3] the target is T2, dvUT. The experiment in a line: SPA isotopic dilution of […]-urea. The test is classed as binding.
In test [4] the target is T2, dvUT. Briefly: scintillation proximity saturation binding, Hill fit. In general terms: In a scintillation proximity assay essentially only radioactivity close to the scintillant gives light.

SMILES strings stand for the structures.

`O=C(CCc1ccc(O)cc1)c1c(O)cc(O)cc1O` [phloretin]: the results for the inhibition at 1000 µM in test [1] and in test [2] were 86% and 87%, respectively.
For the compound `NC(N)=O` [urea], in test [3], the IC50 turned out to be 2300 ± 700 µM. Also, the Kd in test [4] worked out at 2300 ± 140 µM.

The term inhibition denotes the relative decrease from the control value, in per cent. One may read the IC50 as the concentration needed to halve the response being measured. The low end stands for greater potency in that assay, the high end for weaker potency in that assay. The term Kd denotes a measure of binding affinity in units of concentration. High values mean a looser complex, low ones a tighter complex.

Values taken from article PMC2871279 (Nature, 2009).
